The target in the first experiment is T1, Heat shock protein HSP 90-beta (Homo sapiens, UniProt P08238). In words: Inhibition of HSP90 (unknown origin) by luciferase refolding assay.
T1 sequence (P08238 whole entry): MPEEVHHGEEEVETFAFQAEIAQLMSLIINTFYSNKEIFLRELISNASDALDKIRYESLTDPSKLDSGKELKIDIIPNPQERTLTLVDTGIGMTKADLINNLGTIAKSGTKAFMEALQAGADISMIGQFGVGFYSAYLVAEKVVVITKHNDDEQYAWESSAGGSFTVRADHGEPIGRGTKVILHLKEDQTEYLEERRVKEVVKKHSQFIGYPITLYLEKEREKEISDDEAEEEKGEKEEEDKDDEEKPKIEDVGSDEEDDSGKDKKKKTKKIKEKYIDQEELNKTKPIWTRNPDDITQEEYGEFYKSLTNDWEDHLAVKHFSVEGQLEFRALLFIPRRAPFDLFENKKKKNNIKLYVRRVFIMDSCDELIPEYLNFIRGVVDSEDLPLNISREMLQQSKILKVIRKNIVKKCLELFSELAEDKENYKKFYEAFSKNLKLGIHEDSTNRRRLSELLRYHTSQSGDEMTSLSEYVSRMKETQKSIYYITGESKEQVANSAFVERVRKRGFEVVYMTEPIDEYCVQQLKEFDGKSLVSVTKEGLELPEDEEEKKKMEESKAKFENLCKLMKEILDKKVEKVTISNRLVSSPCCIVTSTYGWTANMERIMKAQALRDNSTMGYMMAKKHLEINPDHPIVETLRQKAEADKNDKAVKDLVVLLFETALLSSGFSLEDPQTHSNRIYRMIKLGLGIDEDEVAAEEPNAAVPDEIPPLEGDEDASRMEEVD
Broadly, the IC50 is the concentration that inhibits the measured activity by half. As to `O=C(O[C@@H]1Cc2c(O)cc(O)cc2O[C@@H]1c1cc(O)c(O)c(O)c1)c1ccncc1`, half-maximal inhibition (IC50) required 64 µM. Same read-out and setting: in the case of `O=C(O[C@H]1Cc2c(O)cc(O)cc2O[C@@H]1c1ccc(O)c(O)c1)C1CCCCC1` it was 98 µM.

`O=C(O[C@@H]1Cc2c(O)cc(O)cc2O[C@H]1c1cc(O)c(O)c(O)c1)c1cc(O)c(O)c(O)c1` [GALLOCATECHIN GALLATE] returned an IC50 of 34 µM.

Take `O=S(=O)(N[C@@H]1Cc2c(O)cc(O)cc2O[C@@H]1c1cc(O)c(O)c(O)c1)c1ccccc1`: the IC50 amounted to 44 µM. On the same count and under the same terms, in the case of `O=C(O[C@@H]1Cc2c(O)cc(O)cc2O[C@@H]1c1cc(O)c(O)c(O)c1)c1cc(O)c(O)c(O)c1` [EPIGALOCATECHIN GALLATE] it was 155 µM; in that of `O=C(O[C@@H]1Cc2c(O)cc(O)cc2O[C@@H]1c1ccc(O)c(O)c1)[C@H]1CC[C@H](O)CC1`, 440 µM; in that of `O=C(O[C@H]1Cc2c(O)cc(O)cc2O[C@@H]1c1ccccc1)c1ccccc1` (racemic), 120 µM.

As for `O=C(O[C@@H]1Cc2ccccc2O[C@@H]1c1ccccc1)c1cc(O)c(O)c(O)c1` (racemic), the IC50 was 35 µM. On the same count and under the same terms, in the case of `O=C(O[C@H]1Cc2c(O)cc(O)cc2O[C@@H]1c1ccccc1)c1cc(O)c(O)c(O)c1` (racemic) it was 150 µM; in that of `O=C(O[C@@H]1Cc2c(O)cc(O)cc2O[C@@H]1c1ccc(O)c(O)c1)[C@H]1CC[C@@H](F)CC1`, 65 µM. Same read-out and setting: the figure for `O=C(O[C@H]1Cc2c(O)cc(O)cc2O[C@@H]1c1ccc(O)c(O)c1)[C@H]1CC[C@@H](O)CC1` is 280 µM; for `O=C(O[C@@H]1Cc2c(O)cc(O)cc2O[C@@H]1c1ccccc1)c1ccccc1` (racemic) it is 63 µM; for `O=C(N[C@@H]1Cc2c(O)cc(O)cc2O[C@@H]1c1cc(O)c(O)c(O)c1)c1ccccc1` it is 75 µM.

`O=C(O[C@@H]1Cc2c(O)cc(O)cc2O[C@@H]1c1cc(O)c(O)c(O)c1)c1ccc(F)cc1`: half-maximal inhibition (IC50) required 41 µM.

For `O=C(O[C@@H]1Cc2c(O)cc(O)cc2O[C@@H]1c1ccc(O)c(O)c1)C1CCCCC1`, the IC50 was 81 µM. The same measure, in the same setting: the figure for `O=C(O[C@@H]1Cc2c(O)cc(O)cc2O[C@@H]1c1ccc(O)c(O)c1)[C@H]1CC[C@@H](O)CC1` is 310 µM; for `O=C(O[C@@H]1Cc2c(O)cc(O)cc2O[C@@H]1c1cc(O)c(O)c(O)c1)c1ccccc1` it is 24 µM; for `O=C(O[C@@H]1Cc2c(O)cc(O)cc2O[C@@H]1c1cc(O)c(O)c(O)c1)C1CCCCC1` it is 30 µM. Still for that read-out and setting: the figure for `O=C(O[C@@H]1Cc2c(O)cc(O)cc2O[C@@H]1c1ccc(O)c(O)c1)[C@H]1CC[C@H](F)CC1` is 69 µM; for `O=C(O[C@H]1Cc2c(O)cc(O)cc2O[C@@H]1c1ccc(O)c(O)c1)c1ccccc1` it is 110 µM; for `O=C(O[C@@H]1Cc2c(O)cc(O)cc2O[C@@H]1c1ccc(O)c(O)c1)C1CC1` it is 410 µM. The same measure, in the same setting: the figure for `O=C(O[C@@H]1Cc2c(O)cc(O)cc2O[C@@H]1c1cc(O)c(O)c(O)c1)c1ccc(F)c(F)c1` is 58 µM.

Another experiment concerns the target T1, Heat shock protein HSP 90-beta. Nature of the experiment: Ratio of EGCG IC50 to compound IC50 for HSP90 (unknown origin).
For the molecule `O=S(=O)(N[C@@H]1Cc2c(O)cc(O)cc2O[C@@H]1c1cc(O)c(O)c(O)c1)c1ccccc1`, the Ratio IC50 turned out to be 3.

The values are drawn from ChEMBL document CHEMBL3259794, “Towards the discovery of drug-like epigallocatechin gallate analogs as Hsp90 inhibitors” (Bioorg Med Chem Lett, 2014).
